Experiment: recombinant UMI read abundance after kanamycin selection (control-corrected) (log10(CPM+1)); higher = more efficient recombination; extreme values may be limits of the assay; sequences stand for … in AGTGCAGAGAAAATCGGCCAGTTTTCTCTGCCTGCAGTCCGCATGCCGTGGGACCCCTTGGGTTCTAACCTGTTGCCTAGATTTATGCAGCGGACTGCCTTTCTCCCAAAGTGATAAACCGG…AGGTTGGTTTCACT; site = the 11-nt donor
Procedure: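 Pooled E. coli donor-specificity screen for the IS621 bridge recombinase. Each library member carries a reprogrammed 11-nt donor and a full-length LE bridge RNA expressed in cis from the natural promoter, with a paired donor-binding loop (8-nt LDG + 4-nt RDG) and a target-binding loop fixed to T5. It is co-electroporated with a T5 target plasmid; recombinase is induced with 0.07 mM IPTG and recombinants are selected on kanamycin. UMIs are counted as CPM, averaged over two biological replicates and corrected by the unselected control. Molecule = full bridge RNA written as DNA, built from the T5 scaffold: LDG = donor specificity nt 1-8, RDG = reverse complement of nt 8-11.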
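Further: IS621 bridge recombinase in Escherichia coli cells against a fixed T5 target plasmid.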

| Sequence | recombinant UMI read abundance (log10) |
| --- | --- |
| AACTAAGCATGGACCGGTTTTCCCGGTAATCCGTATTTGGT (site AACTAAGCTAC) | 1.25 |
| AACTAGACATGGACCGGTTTTCCCGGTAATCCGTATTTGGG (site AACTAGACTCC) | 0.0148 |
| AACTAGACATGGACCGGTTTTCCCGGTAATCCGTATTTGGG (site ACCTAGACTCC) | 0.0296 |
| AACTAGACATGGACCGGTTTTCCCGGTAATCCGTATTTGGG (site AGCTAGACTCC) | 0.0187 |
| AACTAGACATGGACCGGTTTTCCCGGTAATCCGTATTTGGG (site ATCTAGACTCC) | 0.0377 |
| AACTAGACATGGACCGGTTTTCCCGGTAATCCGTATTTGGT (site AACTAGACTAC) | 0.776 |
| AACTATTCATGGACCGGTTTTCCCGGTAATCCGTATTTGTC (site AACTATTCTGA) | 0.671 |
| AACTCTACATGGACCGGTTTTCCCGGTAATCCGTATTTGAT (site AACTCTACTAT) | 0.82 |
| AACTGTCCATGGACCGGTTTTCCCGGTAATCCGTATTTGAT (site AACAGTCCTAT) | 0.00914 |
| AACTGTCCATGGACCGGTTTTCCCGGTAATCCGTATTTGAT (site AACCGTCCTAT) | 0.423 |
| AACTGTCCATGGACCGGTTTTCCCGGTAATCCGTATTTGAT (site AACGGTCCTAT) | 0.0127 |
| AACTGTCCATGGACCGGTTTTCCCGGTAATCCGTATTTGAT (site AACTGTCCTAT) | 0.173 |
| AAGAACACATGGACCGGTTTTCCCGGTAATCCGTATTTGAT (site AAGAACACTAT) | 2.22 |
| AAGAAGACATGGACCGGTTTTCCCGGTAATCCGTATTTGCA (site AAGAAGACTTG) | 2.73 |
| AAGAAGACATGGACCGGTTTTCCCGGTAATCCGTATTTGCA (site ACGAAGACTTG) | 1.66 |
| AAGAAGACATGGACCGGTTTTCCCGGTAATCCGTATTTGCA (site AGGAAGACTTG) | 2.2 |
| AAGAAGACATGGACCGGTTTTCCCGGTAATCCGTATTTGCA (site ATGAAGACTTG) | 1.95 |
| AAGAATACATGGACCGGTTTTCCCGGTAATCCGTATTTGCA (site AAGAATACTTG) | 1.67 |
| AAGAATACATGGACCGGTTTTCCCGGTAATCCGTATTTGCA (site CAGAATACTTG) | 1.37 |

| Sequence | recombinant UMI read abundance (log10) |
| --- | --- |
| AAGAATACATGGACCGGTTTTCCCGGTAATCCGTATTTGCA (site GAGAATACTTG) | 0 |
| AAGAATACATGGACCGGTTTTCCCGGTAATCCGTATTTGCA (site TAGAATACTTG) | 1.7 |
| AAGACGCCATGGACCGGTTTTCCCGGTAATCCGTATTTGAT (site AAGACGCCTAT) | 0.386 |
| AAGACTACATGGACCGGTTTTCCCGGTAATCCGTATTTGAC (site AAGACTACTGT) | 2.69 |
| AAGACTACATGGACCGGTTTTCCCGGTAATCCGTATTTGAC (site ACGACTACTGT) | 0.383 |
| AAGACTACATGGACCGGTTTTCCCGGTAATCCGTATTTGAC (site AGGACTACTGT) | 1.33 |
| AAGACTACATGGACCGGTTTTCCCGGTAATCCGTATTTGAC (site ATGACTACTGT) | 1.25 |
| AAGATTTCATGGACCGGTTTTCCCGGTAATCCGTATTTGGA (site AAGATTTCTTC) | 2.1 |
| AAGCACGCATGGACCGGTTTTCCCGGTAATCCGTATTTGTG (site AAGCACGCTCA) | 1.42 |
| AAGCACGCATGGACCGGTTTTCCCGGTAATCCGTATTTGTG (site AAGCACGCTCC) | 0 |
| AAGCACGCATGGACCGGTTTTCCCGGTAATCCGTATTTGTG (site AAGCACGCTCG) | 1.22 |
| AAGCACGCATGGACCGGTTTTCCCGGTAATCCGTATTTGTG (site AAGCACGCTCT) | 0.906 |
| AAGCAGGCATGGACCGGTTTTCCCGGTAATCCGTATTTGGG (site AAGCAAGCTCC) | 0.00504 |
| AAGCAGGCATGGACCGGTTTTCCCGGTAATCCGTATTTGGG (site AAGCACGCTCC) | 0.0214 |
| AAGCAGGCATGGACCGGTTTTCCCGGTAATCCGTATTTGGG (site AAGCAGGCTCC) | 0.367 |
| AAGCAGGCATGGACCGGTTTTCCCGGTAATCCGTATTTGGG (site AAGCATGCTCC) | 0.00333 |
| AAGCCAGCATGGACCGGTTTTCCCGGTAATCCGTATTTGGG (site AAGCCAGCTCC) | 0.00996 |
| AAGCGGGCATGGACCGGTTTTCCCGGTAATCCGTATTTGAC (site AAGCGGGCTGT) | 1.62 |
| AAGCTGTCATGGACCGGTTTTCCCGGTAATCCGTATTTGAT (site AAGCTGTCTAT) | 0.353 |

| Sequence | recombinant UMI read abundance (log10) |
| --- | --- |
| AAGGACACATGGACCGGTTTTCCCGGTAATCCGTATTTGAG (site AAGGACACTCT) | 2.09 |
| AAGGACGCATGGACCGGTTTTCCCGGTAATCCGTATTTGGG (site AAGAACGCTCC) | 0.307 |
| AAGGACGCATGGACCGGTTTTCCCGGTAATCCGTATTTGGG (site AAGCACGCTCC) | 0.0166 |
| AAGGACGCATGGACCGGTTTTCCCGGTAATCCGTATTTGGG (site AAGGACGCTCC) | 0.789 |
| AAGGACGCATGGACCGGTTTTCCCGGTAATCCGTATTTGGG (site AAGTACGCTCC) | 0.0226 |
| AAGGATCCATGGACCGGTTTTCCCGGTAATCCGTATTTGGT (site AAGGATCCTAC) | 0.373 |
| AAGGGTCCATGGACCGGTTTTCCCGGTAATCCGTATTTGAT (site AAGGGTCCTAT) | 0.0248 |
| AAGGTCACATGGACCGGTTTTCCCGGTAATCCGTATTTGAG (site AAGGTCACTCT) | 1.55 |
| AAGGTCACATGGACCGGTTTTCCCGGTAATCCGTATTTGGA (site AAGGTCACTTC) | 1.14 |
| AAGGTGTCATGGACCGGTTTTCCCGGTAATCCGTATTTGAC (site AAAGTGTCTGT) | 1.13 |
| AAGGTGTCATGGACCGGTTTTCCCGGTAATCCGTATTTGAC (site AACGTGTCTGT) | 0.678 |
| AAGGTGTCATGGACCGGTTTTCCCGGTAATCCGTATTTGAC (site AAGGTGTCTGT) | 3.31 |
| AAGGTGTCATGGACCGGTTTTCCCGGTAATCCGTATTTGAC (site AATGTGTCTGT) | 0 |
| AAGTAATCATGGACCGGTTTTCCCGGTAATCCGTATTTGAG (site AAGTAATCTCT) | 2.78 |
| AAGTAGGCATGGACCGGTTTTCCCGGTAATCCGTATTTGGC (site AAGTAGGCTGC) | 2.2 |
| AAGTAGGCATGGACCGGTTTTCCCGGTAATCCGTATTTGGC (site ACGTAGGCTGC) | 1.04 |
| AAGTAGGCATGGACCGGTTTTCCCGGTAATCCGTATTTGGC (site AGGTAGGCTGC) | 0.265 |
| AAGTAGGCATGGACCGGTTTTCCCGGTAATCCGTATTTGGC (site ATGTAGGCTGC) | 1.41 |
| AAGTCGCCATGGACCGGTTTTCCCGGTAATCCGTATTTGAC (site AAGTCGCCTGT) | 0 |
